Columns and labels:
[1] = system: Zucker diabetic fatty (ZDF) rat; test: Kidney histopathology: PAMS and Masson's trichrome staining; format: in vivo; settings: kidney of ZDF rats, p<0.01 vs ZDF
Text: Kidney sections were stained with periodic acid-Schiff-methenamine silver (PAMS) to evaluate glomerulosclerosis and mesangial matrix expansion; Masson's trichrome staining was used to analyse collagen deposition and cortical tubule degeneration. Glomerulosclerosis was defined as glomerular basement membrane thickening, mesangial hypertrophy and capillary occlusion, and was semiquantitatively evaluated on an arbitrary scale of 0 to 4: grade 0 (normal); grade 1 (sclerotic area less than 25%); grade 2 (sclerotic area 25-50%); grade 3 (sclerotic area 50-75%); and grade 4 (sclerotic area more than 75%). The glomerulosclerotic index was then calculated as described. Briefly, 100 glomeruli were randomly chosen from each rat kidney stained with PAMS and carefully scored for sclerosis by two blinded investigators. This was done in a sequential manner to ensure that the same glomerulus was not graded twice. To quantify for mesangial expansion and ECM accumulation in the mesangial areas, PAMS-positive materials in the mesangial region excluding cellular elements were analysed using an image analyser with a microscope (Olympus AX70; Olympus Optical, Hamburg, Germany) and photographed using a Retiga 2000R CCD camera (Qimaging, Surrey, BC, Canada). Twenty glomeruli, randomly selected from each rat were evaluated by two investigators without knowledge of the origin of the slides. The percentage of PAMS-positive area in each glomerulus was analysed using Image Pro Plus (Media Cybernetics, Silver Spring, Mass., USA). Results were expressed as percentage of areas positive for PAMS staining. To evaluate cortical tubule degeneration and collagen deposition, kidney sections were stained withMasson's trichrome. In each section, six fields of kidney cortex were randomly selected at 100× magnification using an Olympus AX70 microscope, photographed using a Retiga 2000R camera and the images analysed by Image Pro Plus. Blue and red colours indicate collagen and cytoplasm staining, respectively. Degenerate tubules in each field were identified by the absence of cytoplasm and results expressed as number of degenerate tubules per field. For quantitative measurement of collagen deposition, positively stained areas from six random regions in each slide were identified and scored by dividing the positively stained areas by the total tissue area in the same field using the colour separation function of Image Pro Plus. Results were expressed as percentage of area with positive staining.

[2] = system: p38 MAPK, p44/42 MAPK, p65 subunit of NF-κB; test: Renal MAPKs and NF-κB activation by western blot; format: in vivo, rat
Description: Renal cortical tissues were homogenised in PBS buffer with 1% (vol./vol.) Nonidet P-40, 0.5% (wt/vol.) sodium deoxycholate, 0.1% (wt/vol.) SDS and protease inhibitor mixture (Roche, Indianapolis, Ind., USA). Homogenates were centrifuged for 15 min at 4° C. and at 12,000 rpm and the supernatant fractions collected and stored at −70° C. Nuclear extracts were prepared as described previously. Protein concentrations were measured using the Bio-Rad DC Assay kit. Total RNA was isolated using the RNA-STAT-60 reagent (Tel-Test, Friendswood, Tex., USA). Western blot assay Protein samples (50 μg) were separated on 10 to 20% gradient Tris-glycine Criterion gels (Bio-Rad) and then transferred to nitrocellulose membranes. The membranes were blocked with 5% (wt/vol.) skimmed milk in PBS before incubation with anti-TGF-β1, anti-CTGF, anti-AGER, anti-phospho-p38 MAPK, anti-phospho-p44/42 MAPK and anti-p65 NF-κB antibodies. Immunoreactive proteins were detected by enhanced chemiluminescence (Western Lightning Chemiluminescence Reagent; Perkin-Elmer, Waltham, Mass., USA) using horseradish peroxidase-labelled secondary antibodies. Equal amounts of protein loading were confirmed by restaining the membranes with antibodies against β-actin, p38 MAPK or p44/42 MAPK for cytosolic extracts or with histone H2B for nuclear extracts. Band intensities were quantified using a densitometer (Quantity One, Bio-Rad). Reverse transcriptase-polymerase chain reaction Total RNA (1 μg) was used for the RT reaction using the GeneAmp RNA PCR kit (Applied Biosystems, Foster City, Calif., USA). Total cDNA was then used in PCR reactions containing gene specific primers [Electronic supplementary material (ESM) Table 1] paired with Quantum 18S rRNA internal standards (Ambion, Austin, Tex., USA). Multiplex PCR reactions were performed in a GeneAmp 9700 (Applied Biosystems). […] The densities of amplified products corresponding to specific genes and 18S rRNA were quantified with Quantity One software (Bio-Rad). Results are expressed as the means of the ratios of Tgfb1, Ctgf or Ager band densities to the 18S rRNA band density.

[3] = system: Zucker diabetic fatty rats (ZDF, fa/fa); test: Metabolic data of ZDF rats treated with LR-90 or LR-102 (Example 2); format: in vivo, rat
Description: The present Example presents the results of an investigation of the effects of LR-90, an inhibitor of AGE/ALE formation, in male Zucker diabetic fatty rats (ZDF, fa/fa) fed with Purina 5008 diet until 40 weeks of age, and their hetorozygous lean littermates (ZDF fa/+) as non-hyperglycemic controls. LR-90 at 50 mg/L of drinking water was given to a subgroup of ZDF rats after the rats developed spontaneous diabetes at 13 weeks of age. At 40 weeks of age, and before killing the animals, their weight was measured; HbA1c, plasma glucose, insulin, triglycerides, cholesterol, CRP and urinary albumin and creatinine concentrations were measured. After euthanizing all animals, organs such as the kidneys, eyeballs, liver, heart, aortae and pancreas were dissected and subjected to immunohistochemical staining, RT-PCR, Western blotting and microscopy.

[4] = ZDF rats at 40 weeks of age, Mean ± SEM

For `CC(C)(Oc1ccc(NC(=O)Nc2ccc(Cc3ccc(NC(=O)Nc4ccc(OC(C)(C)C(=O)O)cc4)c(Cl)c3)cc2Cl)cc1)C(=O)O` [LR-90, methylene bis[4,4′-(2-chlorophenylureidophenoxyisobutyric acid)]], the “quantitative scoring for PAMS staining” value ([1]; FIG. 1c) was “reduced significantly”, the tubular degeneration ([1]; FIG. 1e) was “reduced significantly” and the “percentage positive collagen area staining” value ([1]; FIG. 1f) was “reduced significantly”. The “glomerulosclerosis index (GSI)” value ([1]; FIG. 1d) was “reduced significantly”, the “activation of NF-κB (p65 subunit)” value ([2]; kidney nuclear extracts of ZDF rats, p<0.01) was “significantly attenuated” and the “activation of p44/42 MAPK” value ([2]; renal cortex of ZDF rats, p<0.01) was “significantly attenuated”. The “activation of p38 MAPK” value ([2]; renal cortex of ZDF rats, p<0.05) was “significantly attenuated”, the Plasma glucose ([3]; ZDF rats at 40 weeks of age, drug in drinking water, Mean ± SEM) was 25 ± 2.3 mM and the Cholesterol [3, 4] was 244 ± 13 mg/dL. For the same compound, the HbA1c [3, 4] was 2.89 ± 0.07%, the “Plasma CRP” value [3, 4] was 0.58 ± 0.09 mg/mL and the “Plasma insulin, ELISA” value [3, 4] was 0.64 ± 0.10 ng/mL. The “Plasma insulin, RIA” value [3, 4] was 0.63 ± 0.04 ng/mL, the Triglycerides [3, 4] was 384 ± 51 mg/dL and the “Urinary Albumin” value [3, 4] was 27.8 ± 4.8 mg/24 h. The effect on hyperglycemia ([3]; ZDF rats, Example 2) was “no effect”, the effect on hyperlipidemia ([3]; ZDF rats, Example 2) was “significantly reduced” and the “increase in CRP levels” value ([3]; ZDF rats, Example 2) was “attenuated”.
